Experimental data taken from ChEMBL document CHEMBL2074267, “Dexamethasone modulation of multidrug transporters in normal tissues” (FEBS Lett, 1999).

Experiments:
[1] = biological target: Multidrug resistance protein 1a (Rattus norvegicus) (UniProt Q6PSM0); assay: (§1) TP_TRANSPORTER: Western in vivo, kidney of SD rat; type: functional, organism-based; conditions: Sprague-Dawley
[2] = biological target: T1, ATP-binding cassette sub-family C member 2 (Rattus norvegicus, UniProt Q63120); assay: TP_TRANSPORTER: Western in vivo, liver of SD rat; type: functional, organism-based, Sprague-Dawley
[3] = biological target: T1, ATP-binding cassette sub-family C member 2; assay: as §1; type: functional, organism-based, Sprague-Dawley

T1 sequence (Q63120 whole entry): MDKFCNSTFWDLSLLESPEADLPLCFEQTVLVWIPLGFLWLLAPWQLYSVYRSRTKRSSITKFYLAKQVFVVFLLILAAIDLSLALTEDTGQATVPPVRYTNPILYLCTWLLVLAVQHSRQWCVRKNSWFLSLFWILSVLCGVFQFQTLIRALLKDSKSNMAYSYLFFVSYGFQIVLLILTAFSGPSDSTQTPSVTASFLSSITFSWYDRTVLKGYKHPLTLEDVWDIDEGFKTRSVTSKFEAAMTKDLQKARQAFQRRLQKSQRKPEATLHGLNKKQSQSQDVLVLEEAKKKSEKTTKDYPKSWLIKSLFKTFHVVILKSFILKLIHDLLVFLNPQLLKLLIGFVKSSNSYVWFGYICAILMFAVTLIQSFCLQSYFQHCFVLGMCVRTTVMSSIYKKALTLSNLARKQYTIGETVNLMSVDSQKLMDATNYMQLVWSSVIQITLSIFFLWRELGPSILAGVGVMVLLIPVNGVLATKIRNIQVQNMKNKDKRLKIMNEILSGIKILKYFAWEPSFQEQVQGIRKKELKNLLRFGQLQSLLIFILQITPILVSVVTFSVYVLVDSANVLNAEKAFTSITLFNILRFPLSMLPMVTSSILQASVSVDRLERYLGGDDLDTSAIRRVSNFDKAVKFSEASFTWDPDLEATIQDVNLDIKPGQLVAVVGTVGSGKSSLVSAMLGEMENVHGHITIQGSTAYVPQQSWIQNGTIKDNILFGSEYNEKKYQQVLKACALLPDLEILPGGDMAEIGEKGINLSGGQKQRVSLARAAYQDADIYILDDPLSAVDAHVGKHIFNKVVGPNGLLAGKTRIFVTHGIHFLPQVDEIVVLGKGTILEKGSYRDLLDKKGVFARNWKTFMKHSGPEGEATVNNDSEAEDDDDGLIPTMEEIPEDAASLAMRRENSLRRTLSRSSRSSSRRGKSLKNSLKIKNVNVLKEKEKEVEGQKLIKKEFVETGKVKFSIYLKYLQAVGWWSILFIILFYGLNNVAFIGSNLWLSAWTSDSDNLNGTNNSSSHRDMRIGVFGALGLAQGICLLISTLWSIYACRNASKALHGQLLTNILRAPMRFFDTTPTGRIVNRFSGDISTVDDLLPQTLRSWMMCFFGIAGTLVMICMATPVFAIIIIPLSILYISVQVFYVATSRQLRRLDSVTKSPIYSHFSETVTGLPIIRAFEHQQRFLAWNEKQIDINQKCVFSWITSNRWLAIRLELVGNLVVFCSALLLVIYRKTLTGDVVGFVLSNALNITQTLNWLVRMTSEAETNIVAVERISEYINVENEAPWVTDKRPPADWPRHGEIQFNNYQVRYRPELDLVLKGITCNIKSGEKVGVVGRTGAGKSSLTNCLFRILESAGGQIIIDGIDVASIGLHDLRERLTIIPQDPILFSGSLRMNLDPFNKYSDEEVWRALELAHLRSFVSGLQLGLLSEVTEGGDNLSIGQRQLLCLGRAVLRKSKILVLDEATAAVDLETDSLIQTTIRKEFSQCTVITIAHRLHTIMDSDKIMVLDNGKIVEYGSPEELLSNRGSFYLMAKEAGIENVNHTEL
Chain of Multidrug resistance protein 1a (Rattus norvegicus) (Q6PSM0 as listed by the source): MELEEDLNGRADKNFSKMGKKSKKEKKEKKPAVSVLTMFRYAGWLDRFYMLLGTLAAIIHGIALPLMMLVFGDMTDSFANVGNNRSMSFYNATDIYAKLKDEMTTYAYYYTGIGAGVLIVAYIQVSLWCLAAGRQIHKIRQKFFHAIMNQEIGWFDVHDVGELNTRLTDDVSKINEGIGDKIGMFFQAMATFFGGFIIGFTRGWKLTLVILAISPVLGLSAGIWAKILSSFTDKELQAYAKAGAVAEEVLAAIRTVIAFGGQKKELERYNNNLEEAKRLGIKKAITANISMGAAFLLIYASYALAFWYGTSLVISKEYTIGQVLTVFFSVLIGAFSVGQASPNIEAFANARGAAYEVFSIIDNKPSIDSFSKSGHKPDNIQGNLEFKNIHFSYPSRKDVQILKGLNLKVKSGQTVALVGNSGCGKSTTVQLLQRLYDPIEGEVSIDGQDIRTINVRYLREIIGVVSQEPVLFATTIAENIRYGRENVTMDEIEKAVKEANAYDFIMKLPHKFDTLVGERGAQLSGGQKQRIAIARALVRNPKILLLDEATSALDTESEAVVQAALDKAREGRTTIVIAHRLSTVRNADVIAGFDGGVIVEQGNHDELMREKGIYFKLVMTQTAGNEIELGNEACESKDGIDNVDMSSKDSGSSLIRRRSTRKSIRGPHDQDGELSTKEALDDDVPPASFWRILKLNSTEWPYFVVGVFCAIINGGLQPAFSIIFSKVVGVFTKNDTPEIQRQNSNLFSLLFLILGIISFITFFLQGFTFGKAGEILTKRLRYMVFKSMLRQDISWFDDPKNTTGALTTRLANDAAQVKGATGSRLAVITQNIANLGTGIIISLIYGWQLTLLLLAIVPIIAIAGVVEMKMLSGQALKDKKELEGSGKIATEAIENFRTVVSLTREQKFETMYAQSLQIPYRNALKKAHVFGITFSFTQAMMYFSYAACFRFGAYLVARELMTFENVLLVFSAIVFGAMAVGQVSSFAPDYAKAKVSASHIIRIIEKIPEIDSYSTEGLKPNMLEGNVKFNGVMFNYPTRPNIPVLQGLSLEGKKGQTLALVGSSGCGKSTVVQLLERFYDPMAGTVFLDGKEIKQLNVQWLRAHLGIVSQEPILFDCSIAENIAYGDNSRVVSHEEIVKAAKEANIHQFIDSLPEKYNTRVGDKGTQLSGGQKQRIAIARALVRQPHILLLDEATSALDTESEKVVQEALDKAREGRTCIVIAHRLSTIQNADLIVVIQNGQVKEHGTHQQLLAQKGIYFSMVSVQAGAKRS

C[C@@H]1C[C@H]2[C@@H]3CCC4=CC(=O)C=C[C@]4(C)[C@@]3(F)[C@@H](O)C[C@]2(C)[C@@]1(O)C(=O)CO [DEXAMETHASONE]
Activity [1]: inducer [Decrease] | Activity [2]: inducer [+] | Activity [3]: inducer [+]
